In patent US8987193B2, “Nisin derivatives and the use thereof” (University College Cork—National University of Ireland, Cork, priority 2008, dated 2015):
“Also recorded” adds a separate entry of the source. Ends that are not written are not given here.

Assays:
[1] = tested on: L. lactis CBC8; assay: Deferred antagonism assay; assay type: cell-based; set-up: key: + = Enhanced bioactivity relative to control; − = Bioactivity equal to or less than control; NA = no activity evident; settings: XX and XXX hinge mutant producers
Experimental: (§1) Deferred antagonism assays were performed by replicating strains on GM17 or GM17 x-gal agar plates and allowing them to grow overnight before overlaying with either GM17/BHI/TS/MH agar (0.75% w/v agar) seeded with the appropriate indicator strain. Zone size was calculated as the diameter of the zone of clearing minus the diameter of bacterial growth (5 mm) For higher throughput screening of N20PXX, XM21VX, XXK22T and XXX banks deferred antagonism assays were performed by replicating strains using a 96 pin replicator (Boekel) or spotting 5 μl of a fresh overnight culture on GM17 agar plates and allowing them to grow overnight. […] Additional sets of indicators were employed to further assess/reassess the bioactivity of a number of strains. […] For well-diffusion assays molten agar was cooled to 48° C. and seeded with the appropriate indicator strain. The inoculated medium was rapidly transferred into sterile Petri plates in 50 ml volumes, allowed to solidify and dried. Wells (4.6 mm in diameter) were then made in the seeded plates. Purified nisin and mutant nisins were resuspended in 0.005% acetic acid, serially diluted, 50 μl volumes were dispensed into the aforementioned wells and the plates incubated at 37° C. overnight. Bioactivity was expressed as arbitrary units/ml (AU/ml) and calculated as the reciprocal of the highest dilution that gave a definite zone multiplied by the conversion factor (i.e. 20 when 50 μl was used) (Ryan et al., 1996).
(§2) As a consequence of the enhanced activities of K22T and K22S, a more in-depth investigation of this region was carried out. Saturation mutagenesis was undertaken to create a bank of nisin A hinge derivatives containing the vast majority of possible amino acid substitutions for each position. Although pPTPL was used successfully for random mutagenesis, its relatively large size of approx 10.5 kb was considered unsuitable for the complete plasmid PCR amplification approach utilized for saturation mutagenesis. A smaller (approx 6 kb) E. coli-L. lactis shuttle vector pCI372 was considered to be potentially more useful. Its suitability with respect to the in trans expression of nisA was confirmed by the ability of pDFO5 to restore the nisin positive phenotype. Saturation mutagenesis was performed on each codon using pDF05 and oligonucleotides (Table 5) that replace the specific codon with a NNK triplet, potentially encoding all 20 standard amino acids. Following complete plasmid amplification and introduction into the intermediate Top10 host, sequence analysis of a pooled bank of pDF05 derivatives confirmed randomization. Introduction of these variants into L. lactis NZ9800 allowed the expression of mutant nisin A peptides for further analysis. […] 46 residue conversions were isolated. All strains, regardless of bioactivity, were assessed with a view to comprehensively assessing the consequences of each individual hinge alteration.

[2] = tested on: L. lactis CBC7; assay: Deferred antagonism assay; assay type: cell-based; set-up: key: + = Enhanced bioactivity relative to control; − = Bioactivity equal to or less than control; NA = no activity evident; settings: XX and XXX hinge mutant producers
Experimental: as §1, §2

[3] = tested on: S. aureus CBC4; assay: Deferred antagonism assay; assay type: cell-based; set-up: key: + = Enhanced bioactivity relative to control; − = Bioactivity equal to or less than control; NA = no activity evident; settings: XX and XXX hinge mutant producers
Experimental: as §1, §2

[4] = tested on: indicator strains; assay: Deferred antagonism assays, various indicator strains (summary); assay type: cell-based; settings: for Target strain against which the hinge mutant was selected for enhanced bioactivity: XX and XXX banks, L. lactis HP*: enhanced or equal; for Target strain against which the hinge mutant was selected for enhanced bioactivity / Strain(s) against which the derivative (producing strain) displays enhanced bioactivity: relative to nisin A-producing control; for Strain(s) against which the derivative (producing strain) displays enhanced bioactivity: value = strains listed; for number of targets with enhanced activity: of the 8 additional targets tested
Experimental: as §1

[5] = tested on: L. monocytogenes CBC3; assay: Deferred antagonism assay; assay type: cell-based, Listeria monocytogenes; set-up: key: + = Enhanced bioactivity relative to control; − = Bioactivity equal to or less than control; NA = no activity evident; settings: L. mono CBC3; XX and XXX hinge mutant producers
Experimental: as §1, §2

[6] = tested on: L. monocytogenes CBC1; assay: Deferred antagonism assay; assay type: cell-based, Listeria monocytogenes; set-up: key: + = Enhanced bioactivity relative to control; − = Bioactivity equal to or less than control; NA = no activity evident; settings: L. mono CBC1; XX and XXX hinge mutant producers
Experimental: as §1, §2

[7] = tested on: L. monocytogenes CBC2; assay: Deferred antagonism assay; assay type: cell-based, Listeria monocytogenes; set-up: key: + = Enhanced bioactivity relative to control; − = Bioactivity equal to or less than control; NA = no activity evident; settings: L. mono CBC2; XX and XXX hinge mutant producers
Experimental: as §1, §2

[8] = tested on: L. plantarum CBC6; assay: Deferred antagonism assay; assay type: cell-based, Lactobacillus plantarum; set-up: key: + = Enhanced bioactivity relative to control; − = Bioactivity equal to or less than control; NA = no activity evident; settings: XX and XXX hinge mutant producers
Experimental: as §1, §2

Substance | bioactivity relative to a nisin A-producing control [1] | bioactivity relative to a nisin A-producing control [2] | bioactivity relative to a nisin A-producing control [3] | Target strain against which the hinge mutant was selected for enhanced bioactivity [4] | Strain(s) against which the derivative (producing strain) displays enhanced bioactivity [4] | bioactivity relative to a nisin A-producing control [5] | bioactivity relative to a nisin A-producing control [6] | bioactivity relative to a nisin A-producing control [7] | bioactivity relative to a nisin A-producing control [8] | number of strains with bioactivity ([4]; of the 16 strains tested) | number of targets with enhanced activity [4]
NisinA PLA (ITSISLCTPGCKTGALMGCPLATATCHCSIHVSK; not fully specified (bridges); also: lantibiotic nisin-A: lanthionine rings and dehydrated residues, places not given here; UniProt P13068 24-57, looked up, variant N20P M21L K22A) [nisin A hinge variant PLA (i.e. N20P, M21L, K22A)] | − | − | + | B. cereus UCC1 | B. cereus UCC1 and S. aureus CBC4 | − | − | − | − |  | 
NisinA PAK | − | − | + | Staph. aureus RF122/L. lactis HP* | S. aureus RF122 , CBC4 , NCDO1499 and DPC5246, L. lactis MG1363 , and L. monocytogenes 10403S and EGDe; also recorded: DPC5246, NCDO1499, L. mono 10403S and EGDe | − | − | − | − | 7 | 
NisinA PIM | − | − | − | Staph. aureus RF122 | B. cereus UCC1 | − | − | − | − |  | 
NisinA PSL | − | − | − | C. sporogenes UCC1/Staph. aureus RF122 | C. sporogenes UCC1 and S. aureus RF122 | − | − | − | − |  | 
NisinA PAT (ITSISLCTPGCKTGALMGCPATTATCHCSIHVSK; not fully specified (bridges); also: lantibiotic nisin-A: lanthionine rings and dehydrated residues, places not given here; UniProt P13068 24-57, looked up, variant N20P M21A K22T) [nisin A hinge variant PAT (i.e. N20P, M21A, K22T)] | − | − | − | Strep. agalactiae ATCC 13813 | S. agalactiae ATCC13813 | − | − | − | − |  | 
NisinA HLT (ITSISLCTPGCKTGALMGCHLTTATCHCSIHVSK; cysteine pairing not given here; also: lantibiotic nisin-A; UniProt P13068 24-57, looked up, variant N20H M21L K22T) [nisin A hinge variant HLT (i.e. N20H, M21L, K22T)] | − | + | + | Strep. agalactiae ATCC 13813 | S. agalactiae ATCC13813, L. monocytogenes CBC2 and CBC3, S. aureus CBC4 and L. lactis CBC7; also recorded: S. agalactiae ATCC13813, L. mono CBC2, CBC3, S. aureus | + | − | + | − |  | 4
NisinA GVK | − | + | + | C. sporogenes UCC1 | C. sporogenes UCC1, L. monocytogenes CBC3, S. aureus CBC4 and L. lactis CBC7 and C. sporogenes UCC1, L. mono CBC3, S. aureus CBC4, L. lactis and CBC7 | + | − | − | − |  | 3
NisinA PTA | − | − | − | C. sporogenes UCC1 | C. sporogenes UCC1 | − | − | − | − |  | 
NisinA QLT (ITSISLCTPGCKTGALMGCQLTTATCHCSIHVSK; not fully specified (bridges); also: lantibiotic nisin-A: lanthionine rings and dehydrated residues, places not given here; UniProt P13068 24-57, looked up, variant N20Q M21L K22T) [nisin A hinge variant QLT (i.e. N20Q, M21L, K22T)] | − | − | − | Strep. agalactiae ATCC 13813 | S. agalactiae ATCC13813 | − | − | − | − |  | 
